From ChEMBL document CHEMBL1914329, “2D MI-DRAGON: a new predictor for protein-ligands interactions and theoretic-experimental studies of US FDA drug-target network, oxoisoaporphine inhibitors for MAO-A and human parasite proteins” (Eur J Med Chem, 2011)

How the values were obtained:
Homo sapiens = species on record: Homo sapiens; assay: Selectivity index, ratio of IC50 for human recombinant MAO-B to IC50 for human recombinant MAO-A
[1] = biological target: T1, Amine oxidase [flavin-containing] B (Homo sapiens, UniProt P27338); assay: biochemical; format: cell-based, BTI-TN-5B1-4
T1 sequence (P27338 whole entry): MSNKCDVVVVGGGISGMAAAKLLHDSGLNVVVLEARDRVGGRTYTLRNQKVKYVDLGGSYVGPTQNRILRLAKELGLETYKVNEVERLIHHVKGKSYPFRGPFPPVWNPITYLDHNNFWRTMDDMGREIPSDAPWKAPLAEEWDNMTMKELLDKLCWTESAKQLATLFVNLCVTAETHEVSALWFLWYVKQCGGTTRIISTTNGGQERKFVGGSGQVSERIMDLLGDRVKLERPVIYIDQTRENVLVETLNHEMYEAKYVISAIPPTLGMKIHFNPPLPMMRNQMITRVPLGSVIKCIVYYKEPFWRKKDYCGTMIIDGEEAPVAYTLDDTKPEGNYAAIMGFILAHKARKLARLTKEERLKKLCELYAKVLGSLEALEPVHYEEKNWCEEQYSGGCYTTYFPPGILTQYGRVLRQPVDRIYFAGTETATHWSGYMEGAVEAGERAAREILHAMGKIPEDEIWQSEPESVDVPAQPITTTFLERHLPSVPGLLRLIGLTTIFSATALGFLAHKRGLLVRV
Description: Inhibition of human recombinant MAOB expressed in baculovirus infected BTI-TN-5B1-4 insect cells assessed as hydrogen peroxide production from p-tyramine after 15 mins by amplex red assay

[2] = biological target: T2, Amine oxidase [flavin-containing] A (Homo sapiens, UniProt P21397); assay: Inhibition of human recombinant MAOA expressed in baculovirus infected BTI-TN-5B1-4 insect cells assessed as hydrogen peroxide production from p-tyramine after 15 mins by amplex red assay
T2 sequence (P21397 whole entry): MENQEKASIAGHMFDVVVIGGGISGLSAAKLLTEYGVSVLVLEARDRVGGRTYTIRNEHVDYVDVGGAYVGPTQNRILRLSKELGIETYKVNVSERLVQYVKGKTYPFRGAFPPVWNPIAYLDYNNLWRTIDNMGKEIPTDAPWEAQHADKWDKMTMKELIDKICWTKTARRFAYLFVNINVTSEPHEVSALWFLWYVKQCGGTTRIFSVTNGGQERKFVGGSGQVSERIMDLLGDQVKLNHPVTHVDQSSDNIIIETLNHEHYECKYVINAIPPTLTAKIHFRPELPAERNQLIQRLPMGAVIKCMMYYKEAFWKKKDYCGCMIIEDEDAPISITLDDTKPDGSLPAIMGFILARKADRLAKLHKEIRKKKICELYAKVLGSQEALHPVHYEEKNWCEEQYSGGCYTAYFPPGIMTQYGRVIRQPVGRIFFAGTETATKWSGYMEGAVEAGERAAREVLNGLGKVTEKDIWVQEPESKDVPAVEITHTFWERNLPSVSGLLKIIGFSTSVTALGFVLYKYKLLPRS

[3] = biological target: T1, Amine oxidase [flavin-containing] B; assay: Inhibition of human recombinant MAOB expressed in baculovirus infected BTI-TN-5B1-4 insect cells assessed as hydrogen peroxide production from p-tyramine at 1 mM after 15 mins by amplex red assay; details: bti-tn-5b1-4, 0.25 h, 1000 µM

| Structure (SMILES) | Ratio IC50 (Homo sapiens) | IC50 [1] [µM] | IC50 [2] [µM] | inhibition (INH) [3] |
| --- | --- | --- | --- | --- |
| O=C(NCCN1CCOCC1)c1ccc(Cl)cc1 [MOCLOBEMIDE] |  |  |  | Not Active |
| COc1cc2ccnc3c2c(c1O)C(=O)c1ccccc1-3 | > 81 | > 100 | 1.23 |  |
| COc1cc2c3c(c1O)C(=O)c1ccccc1C3=NCC2 | > 2270 | > 100 | 0.044 |  |
| O=C1c2ccccc2C2=NCCc3cccc1c32 | > 3.7 | > 100 | 27.3 |  |
| COc1cc2c3c(c1)C(=O)c1ccccc1C3=NCC2 | > 7140 | > 100 | 0.014 |  |
| COc1cc2c3c(nccc3c1)-c1ccccc1C2=O |  | > 100 |  |  |
| O=C1c2ccccc2-c2nccc3cc(O)cc1c23 | > 2860 | > 100 | 0.035 |  |

Further lines, results first:

| Ratio IC50 (Homo sapiens) | IC50 [1] [µM] | IC50 [2] [µM] | inhibition (INH) [3] | Structure (SMILES) |
| --- | --- | --- | --- | --- |
| > 139 | > 100 | 0.72 |  | O=C1c2ccccc2-c2nccc3cccc1c23 |
| > 5.1 | > 50 | 9.81 |  | COc1cc2c3c(c1)C(O)c1ccccc1C3NCC2 (centres undefined) |
| > 7690 | > 100 | 0.013 |  | COC1=Cc2ccnc3c2c(cc2ccccc23)C1=O |
| > 24 | > 50 | 2.12 |  | COc1cc2c3c(c1)C(=O)C1=C(CCCC1)C3=NCC2 |
